According to PubChem BioAssay AID624436 (The Scripps Research Institute Molecular Screening Center, 2012):
The source made the active and inactive calls.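 How the source made its calls: active means no compound was called active, only the inactive limit is stated; inactive means inhibition below 30% at 50 µM.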

Molecular target: Serine/threonine-protein phosphatase PP1-alpha catalytic subunit (Homo sapiens) (UniProt P62136)
Assay: PP1alpha phosphatase inhibition, late-stage follow-up, selectivity assay for PP5 inhibitor project, biochemical, OMFP substrate, fluorescence, powder samples, round 5 (AID 624436)
Conditions: purified PP1alpha, OMFP dephosphorylation fluorescence; at 50 µM; hits give high values

Serine/threonine-protein phosphatase PP1-alpha catalytic subunit (Homo sapiens), sequence (P62136 whole entry, looked up): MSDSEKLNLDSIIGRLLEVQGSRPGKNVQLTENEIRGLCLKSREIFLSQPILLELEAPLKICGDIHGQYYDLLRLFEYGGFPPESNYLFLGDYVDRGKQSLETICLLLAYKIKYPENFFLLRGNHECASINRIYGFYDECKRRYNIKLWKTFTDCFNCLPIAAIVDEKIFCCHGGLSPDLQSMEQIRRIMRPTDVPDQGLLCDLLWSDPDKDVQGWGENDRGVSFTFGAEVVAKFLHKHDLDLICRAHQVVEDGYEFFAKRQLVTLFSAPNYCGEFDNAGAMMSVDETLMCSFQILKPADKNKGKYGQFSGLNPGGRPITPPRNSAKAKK

| Structure (SMILES) | inhibition |
| --- | --- |
| Cc1cccc(C)c1-c1n[nH]nc1C(=O)O | 6.84% (inactive) |
| O=C(O)c1n[nH]nc1-c1cccnc1 | 1.43% (inactive) |
| Cc1ccccc1-c1n[nH]nc1C(=O)O | 10.4% (inactive) |
| O=C(O)c1n[nH]nc1-c1ccccn1 | 8.42% (inactive) |
| CCOc1ccccc1-c1n[nH]nc1C(=O)O | 15.5% (inactive) |
| CC(C)c1ccccc1-c1n[nH]nc1C(=O)O | 3.75% (inactive) |
| O=C(O)c1n[nH]nc1-c1ccccc1-c1ccccc1 | 0.415% (inactive) |
| O=C(O)c1n[nH]nc1-c1ccccc1C(F)(F)F | 7% (inactive) |
| CC(C)Oc1ccccc1-c1n[nH]nc1C(=O)O | 9.97% (inactive) |
| CCc1ccccc1-c1n[nH]nc1C(=O)O | 2.41% (inactive) |
| O=C(O)c1[nH]ccc1-c1ccccc1 | 4.43% (inactive) |
